From patent US9612237B2, “Ritalinic acid immunoassay” (Randox Laboratories Limited, priority 2013, dated 2017)
Where a name gives a salt, the structure may show the parent alone.

What follows are molecules tested on antisera generated in response to immunogen of Example 11 (assay: Competitive chemiluminescent biochip immunoassay, antisera raised against immunogen of Example 11, conjugate of Example 12). Conditions: not given.
Assay type: binding, sheep

| Molecule | Concentration exhibiting no cross-reactivity [µg/mL] |
| --- | --- |
| O=c1n(CCC[N+]2([O-])CCN(c3cccc(Cl)c3)CC2)nc2ccccn12 [trazodone N-oxide] | 0.4 |
| CC(=O)Nc1ccc(O)c(SC[C@H](NC(C)=O)C(=O)[O-])c1.[Na+] [3-(N-acetyl-L-cystein-s-yl) acetaminophen sodium salt] | 250 |
| CC(=O)Nc1ccc(OS(=O)(=O)[O-])cc1.[K+] [4-acetaminophen sulphate potassium salt] | 250 |
| CNCCC=C1c2ccccc2CCc2ccccc21 [nortriptyline HCl] | 10 |
| CN1CCCC1c1cccnc1 (single isomer, unassigned; (-)) [(−)-nicotine] | 22 |
| CC(=O)Nc1ccc(O)c(SC[C@H](N)C(=O)O)c1.O=C(O)C(F)(F)F [3-cysteinylacetaminophen trifluoroacetic acid salt] | 250 |
| Oc1cccc(N2CCNCC2)c1 [1-(3-hydroxyphenyl)-piperazine] | 0.4 |
| Cl.NC1CCC(c2ccc(Cl)c(Cl)c2)c2ccccc21 (centres unmarked) [N-desmethyl sertraline HCl] | 10 |
| CN1C(=O)CN=C(c2ccccc2)c2cc(Cl)ccc21 [diazepam] | 3 |
| CN(C(=O)O[C@@H]1O[C@H](C(=O)O)[C@@H](O)[C@H](O)[C@H]1O)[C@H]1CC[C@@H](c2ccc(Cl)c(Cl)c2)c2ccccc21 [sertraline carbamoyl glocuronide] | 3 |
| COc1ccc2cc([C@H](C)C(=O)O)ccc2c1 [naproxen] | 250 |

Same assay, conditions: biochip; relative to methylphenidate = 100

| Molecule | % cross reactivity [%] |
| --- | --- |
| c1ccc(C2(N3CCCCC3)CCCCC2)cc1 [PCP] | <0.1 |
| CCN(CC)CCN1C(=O)CN=C(c2ccccc2F)c2cc(Cl)ccc21 [flurazepam] | <1 |
| CN[C@@H](C)[C@@H](O)c1ccccc1.Cl [(+)-pseudoephedrine HCl] | 0.2 |
| CCOC(=O)[C@@H](c1ccccc1)[C@H]1CCCCN1.Cl (racemic) [rac-erythro-ethylphenidate HCl] | 1.9 |

Same assay, conditions: value is the concentration at which no cross-reactivity was exhibited

| Molecule | Concentration exhibiting no cross-reactivity [µg/mL] |
| --- | --- |
| Oc1ccc2c(c1)[C@@]13CCCC[C@H]1[C@@H](C2)NCC3 [N-desmethyl dextorphan] | 0.25 |
| O=C(O)c1ccccc1 [benzoic acid] | 250 |
| CCN(C(C)=O)c1cccc(-c2ccnc3c(C#N)cnn23)c1 [zaleplon] | 10 |
| O=C(O)c1cccc(O)c1O [2,3-dihydroxy benzoic acid] | 250 |
| COc1ccc2c3c1O[C@H]1C(=O)CC[C@@]4(O)[C@@H](C2)N(C)CC[C@]314 [oxycodone] | 10 |
| Cc1ccccc1-n1c(C)nc2ccccc2c1=O [methaqualone] | 10 |
| CCC(C)C(C)(COC(N)=O)COC(N)=O (centres unmarked) [mebutamate] | 0.35 |
| CC(=O)Nc1ccc(O[C@@H]2O[C@H](C(=O)[O-])[C@@H](O)[C@H](O)[C@H]2O)cc1.[Na+] [4-acetamidophenyl β-D-glucuronide sodium salt] | 250 |
| C[C@H](N)Cc1ccccc1 [D-amphetamine] | 10 |
| O=C(O)[C@H]1O[C@@H](OCC(Cl)(Cl)Cl)[C@H](O)[C@@H](O)[C@@H]1O [urochloralic acid] | 100 |
| CNC(C)Cc1ccc2c(c1)OCO2 (centres unmarked) [MDMA] | 5 |
| COc1ccc(NC(C)=O)cc1 [methacetin] | 250 |
| CCCCCc1cc(O)c2c(c1)OC(C)(C)[C@@H]1CCC(C)=C[C@@H]21 [delta-9-THC] | 10 |
| CN1C(=O)C(O)N=C(c2ccccc2)c2cc(Cl)ccc21 (centres unmarked) [temazepam] | 3 |
| CC(C(=O)O)c1cccc(C(=O)c2ccccc2)c1 (centres unmarked) [ketoprofen] | 250 |
| CCCC(C)(COC(N)=O)COC(N)=O [meprobamate] | 10 |
| CN1C(=O)CN=C(c2ccccc2F)c2cc(N)ccc21 [7-NH flunitrazepam] | 10 |
| COc1ccc2c(c1)[C@]13CCCC[C@@H]1[C@H](C2)N(C)CC3 [dextromethorphan hydrobromide monohydrate] | 10 |
| Cc1ccc(-c2nc3ccc(C)cn3c2CC(=O)N(C)C)cc1 [zolpidem tartrate] | 10 |
| O=C(O)c1cc(-c2ccc(F)cc2F)ccc1O [diflusinal] | 250 |
| CC(=O)Oc1ccc2c3c1O[C@H]1[C@@H](OC(C)=O)C=C[C@H]4[C@@H](C2)N(C)CC[C@@]341 [heroin] | 10 |

| Molecule | Concentration exhibiting no cross-reactivity [µg/mL] |
| --- | --- |
| dextrorphan tartrate salt | 0.25 |
| CCOc1ccc(NC(C)=O)cc1 [phenacetin] | 250 |
| O=C[C@H](O)[C@@H](O)[C@H](O)[C@H](O)C(=O)O [D-glucuronic acid] | 60 |
| O=C(O)c1cc(O)ccc1O [gentisic acid] | 250 |
| CN(C)CCC[C@]1(c2ccc(F)cc2)OCc2cc(C#N)ccc21.O=C(O)C(=O)O [(R)-citalopram oxalate] | 1.5 |
| COc1ccc2c3c1O[C@H]1[C@@H](O)C=C[C@H]4[C@@H](C2)N(C)CC[C@@]341 [codeine] | 0.25 |
| CCc1nn(CCCN2CCN(c3cccc(Cl)c3)CC2)c(=O)n1CC [etoperidone HCl] | 0.4 |
| CCN(CC)C(=O)[C@@H]1C=C2c3cccc4[nH]cc(c34)C[C@H]2N(C)C1 [LSD] | 10 |
| CN1CCN(C(=O)OC2c3nccnc3C(=O)N2c2ccc(Cl)cn2)CC1 (centres unmarked) [zopiclone] | 10 |
| O=C(O)C(Cl)(Cl)Cl [trichloroacetic acid] | 100 |
| Br.CNCCC[C@@]1(c2ccc(F)cc2)OCc2cc(C#N)ccc21 [N-desmethyl escitalopram hydrobromide] | 10 |
| COc1ccc2c(c1)[C@@]13CCCC[C@H]1[C@@H](C2)NCC3.Cl [3-methoxymorphinan HCl] | 0.25 |
| Oc1ccc(C(F)(F)F)cc1 [p-trifluoromethylphenol] | 2.5 |
| CC(C)Cc1ccc(CC(=O)O)cc1 [ibufenac] | 250 |
| O=C1CN=C(c2ccccc2)c2cc(Cl)ccc2N1 [nordiazepam] | 3 |
| CC(=O)Nc1ccc(OC(=O)c2ccccc2OC(C)=O)cc1 [benorylate HCl] | 250 |
| CC(C)Cc1ccc([C@@H](C)C(=O)O)cc1 [(R)-(−)-ibuprofen] | 250 |
| COc1ccc(C(CN(C)C)C2(O)CCCCC2)cc1 (centres unmarked) [venlafaxine HCl] | 0.18 |
| NCCc1ccccc1.O=S(=O)(O)O [phenethylamine sulfate] | 250 |
| CCOC(=O)C1(c2ccccc2)CCNCC1 [normeperidine] | 1 |
| CCOc1ccc(N)cc1 [p-phenetidine] | 106.35 |

| Molecule | Concentration exhibiting no cross-reactivity [µg/mL] |
| --- | --- |
| CN[C@@H](C)Cc1ccccc1 [MAMP] | 2.5 |
| CC(=O)N=C1C=CC(=O)C=C1 [N-acetylbenzoquinomeimine] | 125 |
| CC(C)Cc1ccc(C(C)C(=O)O)cc1 (stereo not drawn) [S-(+)-ibuprofen] | 250 |
| O=C(Oc1ccccc1C(=O)O)c1ccccc1O [salsalate] | 250 |
| CNCCC(Oc1ccc(C(F)(F)F)cc1)c1ccccc1 (centres unmarked) [fluoxetine HCl] | 10 |
| O=c1n(CCCN2CCN(c3cccc(Cl)c3)CC2)nc2ccccn12 [trazodone HCl] | 10 |
| CN1C(=O)CC[C@H]1c1cccnc1 [(−)-cotinine] | 22 |
| COc1ccc2c3c1O[C@H]1C(=O)CC[C@H]4[C@@H](C2)N(C)CC[C@]314 [hydrocodone] | 10 |
| O=C1Nc2ccc(Cl)cc2C(c2ccccc2Cl)=NC1O (centres unmarked) [lorazepam] | 3 |
| COC(=O)c1ccccc1O [methyl salicylate] | 250 |
| c1ccc(CN2CCNCC2)cc1 [1-benzylpiperiazine] | 10 |
| CNCC1CCCCC1(O)c1cccc(O)c1 (racemic) [rac N,O-didesmethyl tramadol] | 0.18 |
| salicylic acid B-D glucuronide | 125 |
| CC(=O)Oc1ccccc1C(=O)O [aspirin] | 250 |
| CN[C@H]1CC[C@@H](c2ccc(Cl)c(Cl)c2)c2ccccc21 [sertaline] | 7.5 |
| CN1CC[C@]23CCCC[C@H]2[C@H]1Cc1ccc(O)cc13 [levorphanol] | 0.25 |
| CC(Cc1ccc(C(C)C(=O)O)cc1)C(=O)O (centres unmarked) [ibuprofen carboxylic acid] | 250 |
| Nc1ccc(C(=O)O)c(O)c1 [4-aminosalicylic acid] | 250 |
| O=C(O)CNC(=O)c1cc(O)ccc1O [gentisuric acid] | 250 |
| CCC(=O)OC(Cc1ccccc1)(c1ccccc1)C(C)CNC.O=C(O)/C=C\C(=O)O (single isomer, unassigned; (+)) [(+)-norpropoxyphene maleate] | 10 |
